Test results as given in paper PMC6277434, “Discovery of a potent HMG-CoA reductase degrader that eliminates statin-induced reductase accumulation and lowers cholesterol” (Nature Communications, 2018).
Values joined by “and” are separate entries in the source; they are usually repeats but may differ in a detail not shown here. Equal values may be shown once. One block for each compound: values may come before it.

Tests used:
[1] = target: T1, HMGCR (Cricetulus griseus, UniProt P00347); test: Immunoblotting of endogenous HMGCR protein in CHO-7 (or CHG) cells; type: cell-based, Chinese hamster; conditions: for endogenous HMGCR protein level (immunoblot), mean: CHG cells, DMSO = 100; for increase of HMGCR protein (maximum increment): statin 16 h, DMSO = 1
T1 construct: endogenous in cells; host or cells: CHO-7, CHG, SRD-13A, SRD-15
T1 sequence (P00347 1-887): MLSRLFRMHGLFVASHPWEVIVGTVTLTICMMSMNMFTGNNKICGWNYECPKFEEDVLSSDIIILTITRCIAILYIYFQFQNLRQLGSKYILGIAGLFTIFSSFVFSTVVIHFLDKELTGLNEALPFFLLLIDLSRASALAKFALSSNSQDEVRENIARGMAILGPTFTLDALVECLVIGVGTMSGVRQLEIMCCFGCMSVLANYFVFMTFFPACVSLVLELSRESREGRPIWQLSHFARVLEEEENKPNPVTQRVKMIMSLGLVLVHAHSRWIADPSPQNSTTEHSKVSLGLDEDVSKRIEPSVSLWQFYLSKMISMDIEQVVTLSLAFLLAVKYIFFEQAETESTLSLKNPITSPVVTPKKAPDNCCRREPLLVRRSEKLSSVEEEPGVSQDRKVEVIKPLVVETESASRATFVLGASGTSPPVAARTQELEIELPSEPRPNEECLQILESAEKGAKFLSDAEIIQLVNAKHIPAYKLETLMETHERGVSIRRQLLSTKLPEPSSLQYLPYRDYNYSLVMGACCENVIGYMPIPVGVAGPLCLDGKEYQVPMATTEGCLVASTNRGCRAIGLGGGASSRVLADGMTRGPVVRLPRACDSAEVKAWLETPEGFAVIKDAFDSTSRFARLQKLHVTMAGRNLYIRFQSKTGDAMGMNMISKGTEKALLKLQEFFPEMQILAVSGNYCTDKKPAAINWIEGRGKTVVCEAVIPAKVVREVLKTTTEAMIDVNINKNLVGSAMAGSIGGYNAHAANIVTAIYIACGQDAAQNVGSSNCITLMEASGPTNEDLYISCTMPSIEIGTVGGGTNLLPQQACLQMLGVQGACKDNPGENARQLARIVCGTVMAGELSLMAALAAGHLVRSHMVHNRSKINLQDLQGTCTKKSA
Experimental: CHO-7 (Chinese hamster ovary cell, a clone of CHO-K1 cell line selected for growth in LPDS) and Huh7 (a human hepatocellular carcinoma cell line), SRD-13A (a Scap-deficient CHO-7 cell line) and SRD-15 (an Insig-1 and Insig-2-deficient CHO-7 cell line) were generous gifts from Russell Debose-Boyd at UT Southwestern Medical Center, USA. All cells were grown in a monolayer at 37 °C with 5% CO2. Huh7 cells were maintained in medium A supplemented with 10% FBS. CHO-7 and SRD-15 cells were maintained in medium B supplemented with 5% FBS. SRD-13A cells were maintained in medium B with 5% FBS, 5 μg ml^−1 cholesterol, 1 mM sodium mevalonate, 10 μM sodium oleate. No cell lines used in this study were found in the database of commonly misidentified cell lines that is maintained by ICLAC and NCBI Biosample. The cell lines have not been authenticated recently. No test for mycoplasma contamination was performed.
(§1) Cells were harvested and homogenized in the RIPA buffer (50 mM Tris-HCl, pH 8.0, 150 mM NaCl, 2 mM MgCl2, 1.5% NP-40, 0.1% SDS, and 0.5% sodium deoxycholate) supplemented with protease cocktail inhibitor, 10 μM MG-132, 10 μg ml^−1 leupeptin and 1 mM phenylmethylsulfonyl fluoride. The protein concentrations of lysates were determined using BCA method (Beyotime). Samples were mixed with the membrane protein solubilization buffer (62.5 mM Tris-HCl, pH 6.8, 15% SDS, 8 M urea, 10% glycerol, and 100 mM DTT) plus the 4× loading buffer (150 mM Tris-HCl, pH 6.8, 12% SDS, 30% glycerol, 6% 2-mercaptoethanol, and 0.02% bromophenol blue) and incubated for 30 min at 37 °C. Proteins were resolved by SDS-PAGE and transferred to nitrocellulose membranes (GE Healthcare). Immnoblots were blocked with 5% non-fat milk in TBS containing 0.075% Tween-20 (TBST) and probed with indicated antibodies overnight at 4 °C. After washing in TBST for five times, blots were incubated with HRP-conjugated secondary antibodies for 2 h at room temperature. Immunoreactivity was developed with Clarity Western ECL chemiluminescent substrates (170–5061, Bio-Rad). Western blot images were captured by Amersham Imager 600 (GE Healthcare), and integrated optical intensities of each band were quantified by Image-Pro Plus 6 software (Media Cybernetics). Uncropped blots are shown in Supplementary Figs. 9–13.

[2] = target: T2, HMGCR (TM1-8)-GFP (Cricetulus griseus, UniProt P00347); test: Immunoblotting of overexpressed HMGCR (TM1-8)-GFP in CHG cells; type: cell-based, hamster; parameters: corresponding to the amino acids from 1 to 346 of hamster HMGCR; expressed in transfected cells; conditions: 16 h, DMSO = 100
T2 sequence (P00347 1-346): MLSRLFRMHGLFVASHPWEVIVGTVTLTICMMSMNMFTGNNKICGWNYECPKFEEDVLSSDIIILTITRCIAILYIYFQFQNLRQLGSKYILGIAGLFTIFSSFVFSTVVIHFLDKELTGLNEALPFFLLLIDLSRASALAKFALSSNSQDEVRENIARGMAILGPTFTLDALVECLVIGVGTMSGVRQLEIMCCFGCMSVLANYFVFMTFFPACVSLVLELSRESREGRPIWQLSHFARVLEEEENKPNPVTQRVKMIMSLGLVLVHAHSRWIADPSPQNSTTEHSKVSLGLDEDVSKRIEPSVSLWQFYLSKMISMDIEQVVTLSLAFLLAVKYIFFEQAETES
Experimental: Fig. 2 A reporting system that measures HMGCR degradation. a Schematic of the HMGCR (TM1-8)-GFP fusion protein. […] Data are from three independent experiments and presented as mean ± SD. Source data are provided as a Source Data File.
as §1

[3] = target: T2, HMGCR (TM1-8)-GFP
Experimental: (§2) We thus generated a cell line stably expressing the transmembrane domain of HMGCR fused with green fluorescent protein (GFP) as a reporter (HMGCR (TM1-8)-GFP) (Fig. 2a).
(§3) CHO-7 cells were transfected with pCMV-HMGCR (TM1-8)-GFP using FuGENE HD. Twenty-four hours, cells were switched to medium B supplemented with 5% FBS and selected in the presence of 1 mg ml^−1 G418 for 2 weeks. Surviving colonies were isolated and confirmed for GFP expression by immunoblotting and immunofluorescence. The resulting CHO-7/HMGCR (TM1-8)-GFP stable cell line (CHG) was maintained in medium B supplemented with 5% FBS and 200 μg ml^−1 G418.
(§4) CHG cells were treated as described in figure legends. Briefly, cells were seeded at day 0 in 96-well black plate (3904, Corning) at a density of 1.5 × 10^4 cells per well, in medium B containing with 5% LPDS. Day 1, corresponding compounds were added as figure legends described in medium B with 5% LPDS, 1 μM lovastatin, 50 μM sodium mevalonate for 16 h. Then cells were fixed with 4% paraformaldehyde for 20 min, washed with PBS for three times, and stained with 2 μg ml^−1 Hoechst 33342.
(§5) The fluorescent images (GFP and Hoechst channel) were captured using an Operatta High-Content Imaging System (PerkinElmer) with a ×20 objective. The cytoplasmic GFP fluorescence was measured with the Harmony Software (PerkinElmer). Five random selected filed per well were captured, and about 3000 cells were used to determine the mean cytoplasmic GFP fluorescent intensity per cell after subtracting background GFP intensity. The average GFP intensity of DMSO-treated cells was defined as 100.

[4] = tested on: LXR signaling pathway; test: RT-qPCR of LXR target genes (SREBP-1c, ABCA1, ABCG8) in Huh-7 cells; type: cell-based, human; conditions: 16 h
Experimental: Cells were treated as described in corresponding figure legends, then total RNA was extracted from cells or mouse livers using TRI Reagent (T9424, Sigma-Aldrich). Equal amounts of RNA from cells or mice receiving the same treatment were pooled were used for cDNA synthesis with oligo dT and reverse transcriptase MLV (Promega). Gene expression was analyzed by quantitative real-time PCR on a Stratagene Mx30005PTM Q-PCR Systems. The primers used were listed in Supplementary Tables 2–4. […]
pathway. a-c Huh-7 cells were treated with indicated compounds for 16 h and then harvested for total RNA isolation and RT-qPCR. Cells treated with LXR agonist T0901317 w ere used as positive controls. The relative mRNA levels of SREBP -1c (a), ABCA1 (b) and ABCG8 (c) were quantified . GAPDH was the reference gene. The relative mRNA level in DMSO-treated cells was defined as 1. Data are from 3 independent experiments and presented as mean ± SD.
(1 picture or pasted object on this page, not shown here)

[5] = tested on: LXR signaling pathway; parameters: method as in earlier work; conditions: previous studies ref 2 (Yang, C. et al. J. Biol. Chem. 281, 27816-27826 (2006)); cited from earlier work
[6] = target: T2, HMGCR (TM1-8)-GFP; test: HMGCR (TM1-8)-GFP fluorescent assay (high-content imaging) in CHG cells; conditions: 16 h; for HMGCR (TM1-8)-GFP fluorescent intensity, mean: DMSO-treated cells = 100
Experimental: as §2, §3, §4, §5

[7] = tested on: Hmgcr mRNA; test: RT-qPCR of Hmgcr mRNA in CHO-7 cells; type: cell-based, Chinese hamster; conditions: CHO-7 cells, statin 16 h (lovastatin up to 10 μM), DMSO = 1
Experimental: Cells were treated as described in corresponding figure legends, then total RNA was extracted from cells or mouse livers using TRI Reagent (T9424, Sigma-Aldrich). Equal amounts of RNA from cells or mice receiving the same treatment were pooled were used for cDNA synthesis with oligo dT and reverse transcriptase MLV (Promega). Gene expression was analyzed by quantitative real-time PCR on a Stratagene Mx30005PTM Q-PCR Systems. The primers used were listed in Supplementary Tables 2–4.

[8] = read-out: HMGCR (TM1-8)-GFP fluorescent intensity, mean

SMILES: CC(C)CCC[C@@H](C)[C@H]1CC[C@@]2(C)C3=C(CC[C@]12C)[C@@]1(C)CC[C@H](O)C(C)(C)[C@@H]1CC3 [24,25-DHL, 24,25-dihydrolanosterol, reference compound]
- endogenous HMGCR protein level (immunoblot), mean ([1]; 0.3 uM, 16 h): 73.3548
- endogenous HMGCR protein level (immunoblot), mean ([1]; 1 uM, 16 h): 35.9866
- endogenous HMGCR protein level (immunoblot), mean ([1]; 3 uM, 16 h): 7.195
- EC50 ([1]; CHO-7 cells, 16 h, read-out: EC50 to decrease endogenous HMGCR (dose–response immunoblotting)): 1.6 µM
- overexpressed HMGCR (TM1-8)-GFP protein level (anti-GFP immunoblot), mean ([2]; 0.3 uM): 87.2697
- overexpressed HMGCR (TM1-8)-GFP protein level (anti-GFP immunoblot), mean ([2]; 1 uM): 51.2487
- overexpressed HMGCR (TM1-8)-GFP protein level (anti-GFP immunoblot), mean ([2]; 3 uM): 6.898
- EC50 [3]: ~1.5 µM and 1.5 µM
- expression of LXR target genes (SREBP-1c, ABCA1 and ABCG8) mRNA [4]: did not activate the LXR target genes
- activation of LXR [5]: no effect
- HMGCR (TM1-8)-GFP fluorescent intensity, mean ([6]; 0.001 uM): 100
- HMGCR (TM1-8)-GFP fluorescent intensity, mean ([6]; 0.0078 uM): 100.168
- HMGCR (TM1-8)-GFP fluorescent intensity, mean ([6]; 0.023 uM): 100
- HMGCR (TM1-8)-GFP fluorescent intensity, mean ([6]; 0.078 uM): 97.2588
- HMGCR (TM1-8)-GFP fluorescent intensity, mean ([6]; 0.234 uM): 80.6542
- HMGCR (TM1-8)-GFP fluorescent intensity, mean ([6]; 2.34 uM): 45.713
- HMGCR (TM1-8)-GFP fluorescent intensity, mean ([6]; 15.6 uM): 10.4985
- HMGCR (TM1-8)-GFP fluorescent intensity, mean ([6]; 31.2 uM): 5

- endogenous HMGCR protein level (immunoblot), mean ([1]; 1 uM, 16 h): 100.862
- endogenous HMGCR protein level (immunoblot), mean ([1]; 3 uM, 16 h): 95.8793
- endogenous HMGCR protein level (immunoblot), mean ([1]; 10 uM, 16 h): 57.8709
- overexpressed HMGCR (TM1-8)-GFP protein level (anti-GFP immunoblot), mean ([2]; 1 uM): 93.1421
- overexpressed HMGCR (TM1-8)-GFP protein level (anti-GFP immunoblot), mean ([2]; 3 uM): 90.7374
- overexpressed HMGCR (TM1-8)-GFP protein level (anti-GFP immunoblot), mean ([2]; 10 uM): 74.0079
- DC50 [3]: ~30.4 µM and 30.4 µM
- remaining activity at 0.001 µM [6, 8]: 100%
- remaining activity at 0.01 µM [6, 8]: 100%
- remaining activity at 0.1 µM [6, 8]: 95.9%
- remaining activity at 0.3 µM [6, 8]: 88.9%
- remaining activity at 1 µM [6, 8]: 77.2%
- remaining activity at 3 µM [6, 8]: 66.6%
- remaining activity at 10 µM [6, 8]: 65.5%
- remaining activity at 20 µM [6, 8]: 58.9%
- remaining activity at 30 µM [6, 8]: 47%
SMILES: CC(C)CCC[C@@H](C)[C@H]1CC[C@H]2[C@@H]3CC=C4C[C@@H](O)CC[C@]4(C)[C@H]3CC[C@]12C [Cholesterol]

- increase of HMGCR protein (maximum increment) ([1]; CHO-7 cells): ~9 fold
SMILES: CC(C)c1c(C(=O)Nc2ccccc2)c(-c2ccccc2)c(-c2ccc(F)cc2)n1CC[C@@H](O)C[C@@H](O)CC(=O)O [atorvastatin]
- increase of Hmgcr mRNA abundance [7]: 1.8 fold

- increase of HMGCR protein (maximum increment) ([1]; CHO-7 cells): ~11 fold
SMILES: CC(C)n1c(/C=C/C(O)CC(O)CC(=O)O)c(-c2ccc(F)cc2)c2ccccc21 (stereo not shown) [fluvastatin]
- increase of Hmgcr mRNA abundance [7]: 2.6 fold

SMILES: CC(C)=CCC[C@@H](C)[C@H]1CC[C@@]2(C)C3=C(CC[C@]12C)[C@@]1(C)CC[C@H](O)C(C)(C)[C@@H]1CC3 [lanosterol]
- expression of LXR target genes (SREBP-1c, ABCA1 and ABCG8) mRNA [4]: did not activate the LXR target genes
- activation of LXR [5]: no effect

- increase of HMGCR protein (maximum increment) ([1]; CHO-7 cells): ~12 fold
SMILES: CC[C@H](C)C(=O)O[C@H]1C[C@H](O)C=C2C=C[C@H](C)[C@H](CC[C@@H](O)C[C@@H](O)CC(=O)O)[C@H]21 [pravastatin]
- increase of Hmgcr mRNA abundance [7]: 2.4 fold

- increase of HMGCR protein (maximum increment) ([1]; CHO-7 cells): ~17 fold
SMILES: CC(C)c1nc(N(C)S(C)(=O)=O)nc(-c2ccc(F)cc2)c1/C=C/[C@@H](O)C[C@@H](O)CC(=O)O [rosuvastatin]
- increase of Hmgcr mRNA abundance [7]: 2.3 fold

- increase of HMGCR protein (maximum increment) ([1]; CHO-7 cells): ~ 15 fold
SMILES: CCC(C)(C)C(=O)O[C@H]1C[C@@H](C)C=C2C=C[C@H](C)[C@H](CC[C@@H]3C[C@@H](O)CC(=O)O3)[C@H]21 [simvastatin]
- increase of Hmgcr mRNA abundance [7]: 3.5 fold
